Results reported in ChEMBL document CHEMBL1144768 (J Med Chem, 2008).

Tests used:
Carbonic anhydrase 2 [1] = target: T1, Carbonic anhydrase 2 (Homo sapiens, UniProt P00918)
Description: Binding affinity to human carbonic anhydrase 2 in presence of 10 mM PIPES without Na+ at pH 7.0 by ThermoFluor method

Carbonic anhydrase 2 [2] = target: T1, Carbonic anhydrase 2; remark: listed apart in the source
Description: Binding affinity to human carbonic anhydrase 2 in presence of 10 mM HEPES without Na+ at pH 7.5 by ThermoFluor method

Carbonic anhydrase 2 [3] = target: T1, Carbonic anhydrase 2; remark: listed apart in the source
Description: Binding affinity to human carbonic anhydrase 2 in presence of 10 mM HEPES and 100 uM Na2SO4 at pH 7.5 by ThermoFluor method

Carbonic anhydrase 2 [4] = target: T1, Carbonic anhydrase 2; remark: listed apart in the source
Description: Binding affinity to human carbonic anhydrase 2 in presence of 10 mM PIPES and 100 uM Na2SO4 at pH 7.0 by ThermoFluor method

Carbonic anhydrase 2 [5] = target: T1, Carbonic anhydrase 2; remark: listed apart in the source
Description: Inhibition of human carbonic anhydrase 2 by 4-NPA hydrolysis assay

Carbonic anhydrase 2 [6] = target: T1, Carbonic anhydrase 2; remark: listed apart in the source
Description: Binding affinity to human carbonic anhydrase 2 in presence of 10 mM PIPES and 200 uM NaCl at pH 7.0 by ThermoFluor method

[7] = Dissociation constant, pKa of the compound; type: physicochemical

Kd (Carbonic anhydrase 2 [1])	Kd (Carbonic anhydrase 2 [2])	Kd (Carbonic anhydrase 2 [3])	Kd (Carbonic anhydrase 2 [4])	Ki (Carbonic anhydrase 2 [5])	Kd (Carbonic anhydrase 2 [6])	Compound	pKa [7]
> 57 µM	> 57 µM	> 57 µM	> 57 µM	300 µM	> 57 µM	CC1(C)O[C@H]2[C@@H]3OCO[C@@H]3CO[C@@]2(CNS(N)(=O)=O)O1	
						CC1(C)O[C@@H]2[C@@H](CO[C@@]3(CNS(N)(=O)=O)OC(C)(C)O[C@@H]23)O1	10.7
						CC1(C)O[C@@H]2[C@@H](CO[C@@]3(COS(N)(=O)=O)OC(C)(C)O[C@@H]23)O1 [TOPIRAMATE]	8.7
